# Active and inactive are the calls of the source.
# Key:
# [1] = viability of uninfected HEp-2 cells – cell-based, HTS, cytotoxicity control for RSV inhibitor project, dose response (AID 2410); format: functional; conditions: human respiratory syncytial virus
# [2] = molecular target: T1, Mannose-6-phosphate isomerase (Homo sapiens, UniProt P34949); experiment: MPI enzyme activity inhibition – biochemical, fluorescence intensity, coupled assay, primary screen (AID 1209)
# T1 sequence (P34949 whole entry): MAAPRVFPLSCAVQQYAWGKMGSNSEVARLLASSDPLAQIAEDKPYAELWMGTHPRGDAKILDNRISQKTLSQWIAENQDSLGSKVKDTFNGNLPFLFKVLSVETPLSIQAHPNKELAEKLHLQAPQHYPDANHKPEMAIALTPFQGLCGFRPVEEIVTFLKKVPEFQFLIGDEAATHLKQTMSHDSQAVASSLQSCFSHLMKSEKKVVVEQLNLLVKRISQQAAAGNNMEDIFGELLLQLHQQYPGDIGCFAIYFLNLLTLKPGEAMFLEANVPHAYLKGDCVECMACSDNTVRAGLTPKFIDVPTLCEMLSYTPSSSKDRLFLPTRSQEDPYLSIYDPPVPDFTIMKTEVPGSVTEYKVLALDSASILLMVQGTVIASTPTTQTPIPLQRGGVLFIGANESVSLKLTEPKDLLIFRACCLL
# [3] = blockers of HIV-1 envelope-mediated cell-cell fusion – cherry-pick, dose response (AID 652057); format: functional, cell-based
# [4] = blockers of HIV-1 ZM109 envelope-driven cell-cell fusion – HeLa effector, CEM target cells, luciferase, cherry-pick, dose response (AID 652058); format: functional, cell-based;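 further: luciferase signal from HIV-1 Env mediated cell-cell fusion of effector and target cells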
# [5] = off-target signal loss in HeLa-CEM21 co-culture – HeLa F-luc CTL cells, cherry-picked, counter-screen for HIV-1 Env fusion inhibitor project, dose response (AID 652040); format: functional, cell-based;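 further: potency for signal decrease marking cytotoxic or nonspecific inhibition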
# [6] = HIV-1 AD8 envelope cell-cell fusion blockers – cherry-pick, dose response (AID 652062); format: functional, cell-based;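 further: luciferase signal from cell-cell fusion driven by HIV-1 clade B AD8 Env; potency is for inhibitors of fusion seen as a drop in luminescence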
# [7] = molecular target: Peroxisome proliferator-activated receptor gamma/Nuclear receptor coactivator 2 (Homo sapiens, UniProt P37231); format: functional;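 further: agonist potency for raising coactivator recruitment to the receptor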
# [8] = molecular target: Peroxisome proliferator-activated receptor gamma/Nuclear receptor coactivator 1 (Homo sapiens, UniProt P37231); format: functional;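 further: agonist potency as compounds enhance coactivator SRC-1 recruitment to PPARgamma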
# [9] = molecular target: Peroxisome proliferator-activated receptor gamma/Nuclear receptor coactivator 3 (Homo sapiens, UniProt P37231); format: functional;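 further: agonist potency for raising coactivator recruitment to the receptor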
# Mucolipin-3 = Mucolipin-3 (Homo sapiens, UniProt Q8TDD5); experiment: Dose response cell-based high-throughput screening assay for agonists of the transient receptor potential channel ML3 (TRPML3). [Related pubchem assays: 1526, 1424, 1448 ]; format: functional
# Ion channel NompC = Ion channel NompC (Danio rerio, UniProt Q7T1G6); experiment: Fluorescence counterscreen assay for TRPML3 agonists: dose response cell-based high-throughput screening assay to identify agonists of the transient receptor potential channel N1 (TRPN1). [Related pubchem assays: 1526, 1424, 1448 ]; format: functional
# [10] = NIH-3T3 fibroblast cytotoxicity, dose response, cytotoxicity control, cell-based, fluorescence, Alamar Blue, secondary assay (AID 2327); format: functional;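 further: NIH-3T3 mouse fibroblasts cultured with fluconazole at 8 µg/mL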
# HEK293 [11] = experiment: inhibition of NOD1-driven NF-kB reporter – cell-based, luminescence, uHTS, primary screen (AID 1578); format: functional; conditions: Homo sapiens
# BJ [12] = experiment: BJ-TERT fibroblast viability loss – cell-based, RAS-independent, luminescence, dose response (AID 1933); format: functional; conditions: Homo sapiens
# HEK293 [13] = experiment: cells; format: functional, cell-based; conditions: Homo sapiens
# BJ [14] = experiment: cells; format: functional, cell-based; conditions: Homo sapiens
# [15] = fluconazole-exposed Candida albicans growth modulators – fluorescence, retest, confirmation (AID 2467); format: functional, cell-based
# HEK293 [16] = experiment: cells; format: functional, cell-based; conditions: Homo sapiens; remark: listed apart in the source
# [17] = molecular target: Nucleotide-binding oligomerization domain-containing protein 2 (Homo sapiens, UniProt Q9HC29); experiment: inhibition of NOD2-driven NF-kB reporter – cell-based, luminescence, uHTS, HEK293 (AID 1566); format: functional
# HEK293 [18] = experiment: NOD2 signaling inhibitors in MDP-stimulated cells, cell-based, uHTS, luminescence (AID 2001); format: functional; conditions: Homo sapiens
# HEK293 [19] = experiment: cells; format: functional, cell-based; conditions: Homo sapiens; remark: listed apart in the source
# [20] = molecular target: T2, Serine/threonine-protein phosphatase (Candida dubliniensis (strain CD36 / CBS 7987 / NCPF 3949 / NRRLY-17841) (Yeast), UniProt B9W6M3); experiment: blockers of CaCl2-induced CDRE-lacZ signaling – S. cerevisiae, luminescence, secondary, dose response (AID 2388); format: functional, cell-based;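 further: yeast reporter cells carrying a calcineurin-responsive lacZ construct stimulated with calcium chloride; luminescent beta-galactosidase reporter signal in whole cells rather than isolated phosphatase activity; potency for inhibition where a drop in reporter signal means calcineurin blockade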
# T2 sequence (B9W6M3 whole entry): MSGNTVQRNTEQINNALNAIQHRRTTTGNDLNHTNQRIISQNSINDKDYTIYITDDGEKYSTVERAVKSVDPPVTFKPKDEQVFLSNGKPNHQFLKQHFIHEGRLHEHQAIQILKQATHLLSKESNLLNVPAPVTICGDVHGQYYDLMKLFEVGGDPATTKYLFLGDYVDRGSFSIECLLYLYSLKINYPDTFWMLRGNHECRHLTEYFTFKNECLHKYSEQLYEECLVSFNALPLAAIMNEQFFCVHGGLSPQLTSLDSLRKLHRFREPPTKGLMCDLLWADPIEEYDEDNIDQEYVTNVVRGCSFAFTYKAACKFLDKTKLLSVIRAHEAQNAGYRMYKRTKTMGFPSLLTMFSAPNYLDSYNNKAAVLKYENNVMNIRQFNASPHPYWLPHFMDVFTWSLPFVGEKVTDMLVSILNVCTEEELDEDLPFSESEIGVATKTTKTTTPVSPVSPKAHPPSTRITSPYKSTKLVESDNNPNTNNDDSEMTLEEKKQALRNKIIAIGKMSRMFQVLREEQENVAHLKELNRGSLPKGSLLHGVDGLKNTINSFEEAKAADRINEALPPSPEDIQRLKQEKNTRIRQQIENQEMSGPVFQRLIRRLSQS
# [21] = molecular target: Voltage-gated inwardly rectifying potassium channel KCNH2 (Homo sapiens, UniProt Q12809); experiment: concentration-dependent hERG rescue from blockers – cell-based, thallium flux, dose response (AID 2121); format: ADME
# BJ [22] = experiment: BJ-TERT-LT-ST fibroblast viability loss – cell-based, RAS-independent, luminescence, dose response (AID 1935); format: functional; conditions: Homo sapiens;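 further: BJ fibroblasts immortalized with TERT plus LT and ST oncogenes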
# [23] = DRD fibroblast viability loss – cell-based, non-viral oncogenic, luminescence, dose response (AID 1934); format: functional; conditions: Homo sapiens
# HEK293 [24] = experiment: EBV LMP1 TES2 canonical NF-kB signalling blockers – cell-based, HEK293, luciferase, cherry-pick, dose response (AID 588343); format: functional; conditions: Homo sapiens
# [25] = molecular target: Heat shock protein HSP 90-alpha (Homo sapiens, UniProt P07900); format: functional, organism-based
# Vero [26] = experiment: cells; format: functional, cell-based; conditions: Chlorocebus sabaeus
# BJ [27] = experiment: growth inhibition of engineered Ras-driven BJ cells – cell-based, alamar blue fluorescence, cherrypicked samples, dose response (AID 2631); format: functional; conditions: Homo sapiens;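 further: confirmatory dose-response assay in RAS-dependent BJ fibroblasts engineered with TERT, LT and ST, with cytotoxicity read by fluorescence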
# INS1 = experiment: INS-1E survival protection against cytokine death – cell-based, luminescence, retest, dose response (AID 449756); format: functional; conditions: Rattus norvegicus;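 further: cell death triggered by IL-1 beta plus TNF-alpha plus IFN-gamma mixture; protective hits raise ATP signal compared with cytokine alone wells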
# Vero [28] = experiment: cells; format: functional; conditions: Chlorocebus sabaeus
# [29] = molecular target: ATP-dependent molecular chaperone HSP82 (Candida albicans (strain WO-1) (Yeast), UniProt C4YTQ8); experiment: steroid-induced GRE reporter decrease in yeast – S. cerevisiae, luminescence, Hsp90 inhibitor project, dose response (AID 2400); format: functional, cell-based;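 further: beta-galactosidase luminescence from glucocorticoid response element reporter as proxy for Hsp90 function; inhibitor potency where signal loss means Hsp90 inhibition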
# [30] = Counterscreen for IDE inhibitors: Luminescence-based cell-based high throughput dose response assay to identify compounds that are cytotoxic to HEK cells. [Related pubchem assays: 434962 (Primary screen (IDE inhibitors in singlicate)), 449730 (Counterscreen (Cytotoxicity in triplicate)), 435028 (Confirmation (IDE inhibitors in triplicate)) …; format: functional; conditions: HEK293
# Insulin-degrading enzyme = molecular target: T3, Insulin-degrading enzyme (Homo sapiens, UniProt P14735); experiment: Dose Response: Fluorescence polarization-based cell-based high throughput dose response assay for inhibitors of insulin-degrading enzyme (IDE). [Related pubchem assays: 434962 (Primary screen (IDE inhibitors in singlicate)), 449730 (Counterscreen (Cytotoxicity in triplicate)), 435028 (Confirmation (IDE inhibitors in triplicate)), 434984 (Summary …; format: functional
# T3 sequence (P14735 whole entry): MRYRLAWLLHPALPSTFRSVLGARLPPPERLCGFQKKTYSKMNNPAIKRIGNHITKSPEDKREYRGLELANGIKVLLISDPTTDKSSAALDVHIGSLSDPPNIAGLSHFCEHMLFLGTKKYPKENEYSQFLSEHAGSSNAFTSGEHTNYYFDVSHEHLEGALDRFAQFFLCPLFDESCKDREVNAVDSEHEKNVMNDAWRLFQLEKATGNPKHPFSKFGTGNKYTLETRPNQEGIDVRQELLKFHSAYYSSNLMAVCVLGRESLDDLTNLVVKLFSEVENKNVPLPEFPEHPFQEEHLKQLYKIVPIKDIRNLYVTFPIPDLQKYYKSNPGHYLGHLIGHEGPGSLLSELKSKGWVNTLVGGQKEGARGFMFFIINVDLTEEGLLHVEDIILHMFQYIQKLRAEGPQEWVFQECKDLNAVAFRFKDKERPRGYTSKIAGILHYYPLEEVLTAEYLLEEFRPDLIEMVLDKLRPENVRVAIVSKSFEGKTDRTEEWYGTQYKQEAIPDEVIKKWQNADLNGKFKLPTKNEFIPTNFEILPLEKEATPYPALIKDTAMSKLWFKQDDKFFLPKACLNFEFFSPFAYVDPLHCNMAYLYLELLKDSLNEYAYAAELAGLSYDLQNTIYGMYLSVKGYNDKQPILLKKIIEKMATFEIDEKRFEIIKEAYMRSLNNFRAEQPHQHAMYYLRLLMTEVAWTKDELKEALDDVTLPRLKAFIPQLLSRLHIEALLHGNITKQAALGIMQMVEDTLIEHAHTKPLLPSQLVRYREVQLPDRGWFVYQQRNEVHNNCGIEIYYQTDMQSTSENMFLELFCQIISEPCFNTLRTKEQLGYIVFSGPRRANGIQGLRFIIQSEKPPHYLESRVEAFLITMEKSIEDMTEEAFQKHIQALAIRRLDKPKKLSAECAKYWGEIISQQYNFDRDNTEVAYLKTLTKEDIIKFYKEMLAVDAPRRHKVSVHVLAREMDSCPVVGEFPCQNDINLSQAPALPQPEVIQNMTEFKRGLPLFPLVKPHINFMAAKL
# Mucolipin-3, sequence (Q8TDD5 whole entry): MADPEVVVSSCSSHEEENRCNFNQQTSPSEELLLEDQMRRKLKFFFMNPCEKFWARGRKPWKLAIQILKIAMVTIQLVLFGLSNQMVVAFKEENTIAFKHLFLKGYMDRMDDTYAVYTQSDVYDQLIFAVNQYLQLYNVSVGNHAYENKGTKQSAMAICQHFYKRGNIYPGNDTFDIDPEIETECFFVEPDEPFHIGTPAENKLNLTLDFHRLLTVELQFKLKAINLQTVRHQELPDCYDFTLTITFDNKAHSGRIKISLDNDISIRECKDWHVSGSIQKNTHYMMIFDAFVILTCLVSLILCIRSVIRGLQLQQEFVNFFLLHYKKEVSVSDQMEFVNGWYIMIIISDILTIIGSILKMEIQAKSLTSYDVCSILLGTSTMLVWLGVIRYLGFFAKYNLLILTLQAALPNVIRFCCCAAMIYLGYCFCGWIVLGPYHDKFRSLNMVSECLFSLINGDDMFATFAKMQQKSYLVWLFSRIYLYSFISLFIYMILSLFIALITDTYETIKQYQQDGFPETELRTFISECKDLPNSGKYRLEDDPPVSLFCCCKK
# Peroxisome proliferator-activated receptor gamma/Nuclear receptor coactivator 1, sequence (P37231 whole entry): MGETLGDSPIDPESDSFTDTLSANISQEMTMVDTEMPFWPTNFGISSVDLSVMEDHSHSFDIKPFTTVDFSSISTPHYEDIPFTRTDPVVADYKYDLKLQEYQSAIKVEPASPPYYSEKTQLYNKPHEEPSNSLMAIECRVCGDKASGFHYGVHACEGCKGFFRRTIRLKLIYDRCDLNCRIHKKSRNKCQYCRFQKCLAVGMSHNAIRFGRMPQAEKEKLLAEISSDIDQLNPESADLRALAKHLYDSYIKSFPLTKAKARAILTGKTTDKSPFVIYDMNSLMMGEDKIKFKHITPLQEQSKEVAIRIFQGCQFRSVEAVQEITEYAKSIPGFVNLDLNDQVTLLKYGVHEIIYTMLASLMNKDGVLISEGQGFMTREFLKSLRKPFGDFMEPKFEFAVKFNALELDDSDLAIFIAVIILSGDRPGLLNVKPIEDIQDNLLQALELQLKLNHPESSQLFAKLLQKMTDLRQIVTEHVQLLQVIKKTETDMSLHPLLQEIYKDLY
# Peroxisome proliferator-activated receptor gamma/Nuclear receptor coactivator 1, sequence (Q15788 whole entry, further chain): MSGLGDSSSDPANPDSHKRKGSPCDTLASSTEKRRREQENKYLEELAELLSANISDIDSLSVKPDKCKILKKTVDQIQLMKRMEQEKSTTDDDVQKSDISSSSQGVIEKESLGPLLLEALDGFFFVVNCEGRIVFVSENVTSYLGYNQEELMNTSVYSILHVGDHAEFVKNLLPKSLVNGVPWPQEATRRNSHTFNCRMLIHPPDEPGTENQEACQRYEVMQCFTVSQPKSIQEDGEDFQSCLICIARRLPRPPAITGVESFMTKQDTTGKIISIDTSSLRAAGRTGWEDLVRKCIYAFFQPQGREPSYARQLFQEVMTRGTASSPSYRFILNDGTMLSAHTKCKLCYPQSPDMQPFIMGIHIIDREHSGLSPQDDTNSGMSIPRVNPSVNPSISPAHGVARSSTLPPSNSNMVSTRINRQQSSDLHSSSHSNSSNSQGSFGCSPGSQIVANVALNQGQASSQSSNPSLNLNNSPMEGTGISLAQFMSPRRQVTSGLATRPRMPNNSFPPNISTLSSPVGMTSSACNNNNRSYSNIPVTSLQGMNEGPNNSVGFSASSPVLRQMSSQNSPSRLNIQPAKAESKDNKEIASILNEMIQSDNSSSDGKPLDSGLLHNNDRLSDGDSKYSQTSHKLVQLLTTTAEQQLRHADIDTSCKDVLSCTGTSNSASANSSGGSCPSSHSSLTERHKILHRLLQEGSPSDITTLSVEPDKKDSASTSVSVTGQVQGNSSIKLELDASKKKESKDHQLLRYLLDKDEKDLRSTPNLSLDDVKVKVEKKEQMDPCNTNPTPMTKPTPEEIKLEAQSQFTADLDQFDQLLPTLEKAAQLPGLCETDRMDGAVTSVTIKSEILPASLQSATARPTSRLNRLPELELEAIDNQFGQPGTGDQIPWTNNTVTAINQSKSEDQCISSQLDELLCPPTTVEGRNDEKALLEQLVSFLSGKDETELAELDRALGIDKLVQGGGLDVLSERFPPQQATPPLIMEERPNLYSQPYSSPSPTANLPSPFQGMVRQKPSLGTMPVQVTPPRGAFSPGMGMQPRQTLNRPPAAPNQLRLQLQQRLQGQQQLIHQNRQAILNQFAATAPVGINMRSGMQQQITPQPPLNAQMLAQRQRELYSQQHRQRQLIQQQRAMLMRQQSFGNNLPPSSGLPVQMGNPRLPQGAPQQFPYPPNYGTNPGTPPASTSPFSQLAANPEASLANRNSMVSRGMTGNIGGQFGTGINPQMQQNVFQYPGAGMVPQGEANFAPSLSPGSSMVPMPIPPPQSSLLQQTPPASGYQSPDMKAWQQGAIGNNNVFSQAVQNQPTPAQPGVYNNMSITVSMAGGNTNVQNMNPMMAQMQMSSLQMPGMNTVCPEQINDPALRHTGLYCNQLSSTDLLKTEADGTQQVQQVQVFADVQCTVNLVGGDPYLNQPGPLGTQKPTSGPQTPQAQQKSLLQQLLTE
# Peroxisome proliferator-activated receptor gamma/Nuclear receptor coactivator 3, sequence (P37231 whole entry): as the sequence (P37231 whole entry) above
# Peroxisome proliferator-activated receptor gamma/Nuclear receptor coactivator 3, sequence (Q9Y6Q9 whole entry, further chain): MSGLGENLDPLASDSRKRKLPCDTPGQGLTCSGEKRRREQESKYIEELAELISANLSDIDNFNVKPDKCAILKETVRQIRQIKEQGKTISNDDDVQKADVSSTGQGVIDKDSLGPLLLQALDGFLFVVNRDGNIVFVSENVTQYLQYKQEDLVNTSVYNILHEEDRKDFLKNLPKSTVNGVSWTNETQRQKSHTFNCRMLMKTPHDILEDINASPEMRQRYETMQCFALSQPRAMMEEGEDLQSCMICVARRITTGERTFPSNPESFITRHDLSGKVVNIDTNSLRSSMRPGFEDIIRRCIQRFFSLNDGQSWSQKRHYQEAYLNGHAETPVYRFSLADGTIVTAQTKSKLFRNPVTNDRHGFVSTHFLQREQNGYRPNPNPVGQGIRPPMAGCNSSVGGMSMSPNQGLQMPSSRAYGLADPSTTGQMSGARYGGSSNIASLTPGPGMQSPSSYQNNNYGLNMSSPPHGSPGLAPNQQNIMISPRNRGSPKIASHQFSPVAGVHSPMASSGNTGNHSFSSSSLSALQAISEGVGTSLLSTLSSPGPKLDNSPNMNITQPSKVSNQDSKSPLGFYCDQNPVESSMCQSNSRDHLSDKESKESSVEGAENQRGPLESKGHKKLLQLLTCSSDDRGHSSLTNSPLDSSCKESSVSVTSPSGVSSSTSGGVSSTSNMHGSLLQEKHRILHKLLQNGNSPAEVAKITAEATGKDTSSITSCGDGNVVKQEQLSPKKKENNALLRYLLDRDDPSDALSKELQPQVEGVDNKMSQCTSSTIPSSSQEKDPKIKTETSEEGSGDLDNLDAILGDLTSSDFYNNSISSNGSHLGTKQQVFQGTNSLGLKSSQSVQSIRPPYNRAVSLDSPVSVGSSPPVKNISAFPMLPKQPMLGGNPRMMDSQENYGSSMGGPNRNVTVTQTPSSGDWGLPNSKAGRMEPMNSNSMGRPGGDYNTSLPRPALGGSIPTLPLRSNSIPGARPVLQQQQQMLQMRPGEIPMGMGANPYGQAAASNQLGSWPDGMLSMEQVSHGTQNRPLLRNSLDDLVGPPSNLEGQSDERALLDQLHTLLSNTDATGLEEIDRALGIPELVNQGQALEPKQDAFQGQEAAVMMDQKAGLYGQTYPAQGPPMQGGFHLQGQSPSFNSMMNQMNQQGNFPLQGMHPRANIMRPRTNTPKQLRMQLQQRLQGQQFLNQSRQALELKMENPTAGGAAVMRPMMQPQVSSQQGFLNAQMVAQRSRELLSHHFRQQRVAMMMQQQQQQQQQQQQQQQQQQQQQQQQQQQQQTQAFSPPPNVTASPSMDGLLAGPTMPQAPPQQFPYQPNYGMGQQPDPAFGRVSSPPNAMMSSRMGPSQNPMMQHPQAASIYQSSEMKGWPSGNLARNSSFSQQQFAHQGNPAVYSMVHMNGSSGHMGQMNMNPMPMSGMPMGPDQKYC
structure (smiles),measurement,setting,value
CCN(CC(=O)Nc1cc(Cl)ccc1C)C(=O)CSCc1ccc(C)cc1,CC50,[1],24.5 µM (active)
same,IC50,cells,22.8 µM (active)
CCOc1ccc2c(c1)C(C)=CC(C)(C)N2C(=O)Nc1ccccc1,IC50,[2],> 50 µM (not active)
O=C(NCc1ccco1)c1ccc(Cn2c(=O)c3ccccc3n(Cc3ccc(Cl)cc3)c2=O)cc1,CC50,[1],> 50 µM (active)
same,AC50,[3],669 nM (active)
same,AC50,[4],1.48 µM (active)
same,AC50,[5],421 nM (active)
same,AC50,[6],5.95 µM (active)
same,IC50,cells,0.58 µM (active)
COc1cnn(-c2ccccc2)c(=O)c1N(C)C,EC50,[7],> 79.4 µM (not active)
same,EC50,[8],> 79.4 µM (not active)
same,EC50,[9],> 79.4 µM (not active)
COc1cc(C)ccc1S(=O)(=O)N1CCCCCC1,EC50,Mucolipin-3,2.84 µM (active)
same,EC50,Ion channel NompC,> 29.9 µM (not active)
COc1cccc(N=Nc2ccc(O)c3ncccc23)c1,EC50,[10],> 160 µM (inactive)
same,EC50,HEK293 [11],3.74 µM (active)
same,EC50,BJ [12],7.7 µM (inconclusive)
same,IC50,HEK293 [13],3.04 µM (active)
same,EC50,BJ [14],2.8 µM (inconclusive)
same,EC50,[15],790 nM (active)
same,IC50,HEK293 [16],> 20 µM (inactive)
same,EC50,[17],> 20 µM (inactive)
same,IC50,HEK293 [18],3.4 µM (inactive)
same,IC50,HEK293 [19],> 20 µM (inactive)
same,EC50,[20],> 180 µM (inactive)
same,EC50,[21],2.99 µM (active)
same,EC50,BJ [22],8.08 µM (inconclusive)
same,EC50,[23],12.7 µM (inconclusive)
same,AC50,HEK293 [24],3.6 µM (active)
same,AC50,[25],4.01 µM (active)
same,IC50,Vero [26],> 25 µM (active)
same,EC50,BJ [27],1.05 µM (active)
same,AC50,INS1,2.1 µM (active)
same,CC50,Vero [28],6.41 µM (active)
same,EC50,[29],13.6 µM (active)
CC(=O)Nc1c(O)nc(SCC(=O)Nc2ccc(C(C)=O)cc2)[nH]c1=O,EC50,[7],> 79.4 µM (not active)
same,EC50,[8],> 79.4 µM (not active)
same,EC50,[9],> 79.4 µM (not active)
Cc1ccc(S(=O)(=O)N2CC3CCCC2C3)cc1 (stereo not drawn),EC50,Mucolipin-3,3.78 µM (active)
same,EC50,Ion channel NompC,> 29.9 µM (not active)
CC(=O)Nc1cc(/N=C/c2ccc(O)cc2O)c(Cl)cc1Cl,IC50,[30],16 µM (not active)
same,IC50,Insulin-degrading enzyme,> 6.22 µM (active)
O=C(O)c1cccc(N/N=C/c2cccnc2)c1,IC50,[2],> 50 µM (not active)

# Source: ChEMBL document CHEMBL1201862, “PubChem BioAssay data set” (2004)
